Measured values: patent EP4140481A1, “PROTEIN-OLIGOMER BINDING AGENTS AND THERAPEUTIC USES THEREOF” (Galyan Bio, Inc., priority 2021, dated 2023)

Target: T1, mHTT (Homo sapiens, UniProt P42858)
T1 construct: host or cells: ST HDH Q111/111 mouse striatal cell line (knock-in locus)
Experiment: mHTT levels in striatal cells (immunocytochemistry)
Format: cell-based, mouse
Details: for remaining activity at 10 µM / mHTT after treatment / Nuclear mHTT after treatment: STHdh 111/111, 3 hours heat shock, 48 hours treatment; for remaining activity at 10 µM / mHTT after treatment: percentage in comparison to untreated STHdh 111/111, 3B5H10 antibody, 10 µM; for remaining activity at 10 µM: read-out: mHTT after treatment
Experimental: (§1) Staining - Cells were permeabilized with 0.3% Triton X-100 in 4 °C PBS (pH 7.4 from ThermoFisher) for 10 minutes. Then the cells were washed two times with 4 °C PBS. Subsequently, cells are blocked with 3% NGS (normal goat serum from Thermo Fisher) in 4 ° C PBS for 1 hour. Cells were incubated with primary antibodies in blocking buffer (PBS, 3% NGS, 0.02% NaN3) over night at 4 °C. Primary antibodies were mouse antipolyglutamine monoclonal antibody 3B5H10 (Sigma-Aldrich) at 1:250 dilution and Guinea Pig anti-MAP2 polyclonal antibody (Synaptic Systems) at 1:500 dilution. 3B5H10 binds to diffuse mHTT. Diffuse mHTT is a monomeric and small oligomeric mHTT. Diffuse mHTT is correlated to pathological parameters in Huntington's disease. Compounds that bind the mHTT will reduce the levels of diffuse mHTT detected.
Cells were washed 2 times with 4 °C PBS, and then incubated with secondary antibodies at 1:2000 dilution in blocking buffer for 1hour at room temperature. […] Cells were washed 2 times with 4 °C PBS, and then the nuclei were counterstain with DAPI (ThermoFisher) for 10 min at room temperature in the dark. Cells were washed 2 times with 4 °C PBS, and then 4 °C PBS was added to cells and then images were acquired. […] Table 11: Antibodies Used in Immunocytochemistry Studies
Fluorescence Imaging - Imaging sessions were performed on a confocal microscope system (Carl Zeiss Microscopy) equipped with a dual spinning disk unit (Yokogawa). All components of the imaging system were controlled via the ZEN 2 software suite (Carl Zeiss Microscopy). The laser lines used were 405 nm, 488 nm and 639 nm to excite DAPI or the respective fluorophores. […] Nested t test was performed to calculate the significance amongst repeated measurements using GraphPad Prism software.
as §1, with “For LC3 staining primary antibodies were mouse anti-LC3 mab (5F10) (nanoTools) at 1:500 dilution” for “3B5H10 binds to diffuse mHTT. Diffuse mHTT is a monomeric”, “Guinea Pig anti-MAP2 polyclonal antibody (Synaptic Systems) at 1:500 dilution.” for “small oligomeric mHTT. Diffuse mHTT is correlated to pathological parameters in Huntington's disease. Compounds that bind the mHTT will reduce the levels of diffuse mHTT detected.”
Cells were washed 2 times with 4 °C PBS, and then incubated with secondary antibodies at 1:2000 dilution in blocking buffer for 1hour at room temperature. […] Cells were washed 2 times with 4 °C PBS, and then the nuclei were counterstain with DAPI (ThermoFisher) for 10 min at room temperature in the dark. Cells were washed 2 times with 4 °C PBS, and then 4 °C PBS was added to cells and then images were acquired.
EC 50 value was determined with non-linear regression.

T1 sequence (P42858 with tags, fused parts or gaps with the stated changes): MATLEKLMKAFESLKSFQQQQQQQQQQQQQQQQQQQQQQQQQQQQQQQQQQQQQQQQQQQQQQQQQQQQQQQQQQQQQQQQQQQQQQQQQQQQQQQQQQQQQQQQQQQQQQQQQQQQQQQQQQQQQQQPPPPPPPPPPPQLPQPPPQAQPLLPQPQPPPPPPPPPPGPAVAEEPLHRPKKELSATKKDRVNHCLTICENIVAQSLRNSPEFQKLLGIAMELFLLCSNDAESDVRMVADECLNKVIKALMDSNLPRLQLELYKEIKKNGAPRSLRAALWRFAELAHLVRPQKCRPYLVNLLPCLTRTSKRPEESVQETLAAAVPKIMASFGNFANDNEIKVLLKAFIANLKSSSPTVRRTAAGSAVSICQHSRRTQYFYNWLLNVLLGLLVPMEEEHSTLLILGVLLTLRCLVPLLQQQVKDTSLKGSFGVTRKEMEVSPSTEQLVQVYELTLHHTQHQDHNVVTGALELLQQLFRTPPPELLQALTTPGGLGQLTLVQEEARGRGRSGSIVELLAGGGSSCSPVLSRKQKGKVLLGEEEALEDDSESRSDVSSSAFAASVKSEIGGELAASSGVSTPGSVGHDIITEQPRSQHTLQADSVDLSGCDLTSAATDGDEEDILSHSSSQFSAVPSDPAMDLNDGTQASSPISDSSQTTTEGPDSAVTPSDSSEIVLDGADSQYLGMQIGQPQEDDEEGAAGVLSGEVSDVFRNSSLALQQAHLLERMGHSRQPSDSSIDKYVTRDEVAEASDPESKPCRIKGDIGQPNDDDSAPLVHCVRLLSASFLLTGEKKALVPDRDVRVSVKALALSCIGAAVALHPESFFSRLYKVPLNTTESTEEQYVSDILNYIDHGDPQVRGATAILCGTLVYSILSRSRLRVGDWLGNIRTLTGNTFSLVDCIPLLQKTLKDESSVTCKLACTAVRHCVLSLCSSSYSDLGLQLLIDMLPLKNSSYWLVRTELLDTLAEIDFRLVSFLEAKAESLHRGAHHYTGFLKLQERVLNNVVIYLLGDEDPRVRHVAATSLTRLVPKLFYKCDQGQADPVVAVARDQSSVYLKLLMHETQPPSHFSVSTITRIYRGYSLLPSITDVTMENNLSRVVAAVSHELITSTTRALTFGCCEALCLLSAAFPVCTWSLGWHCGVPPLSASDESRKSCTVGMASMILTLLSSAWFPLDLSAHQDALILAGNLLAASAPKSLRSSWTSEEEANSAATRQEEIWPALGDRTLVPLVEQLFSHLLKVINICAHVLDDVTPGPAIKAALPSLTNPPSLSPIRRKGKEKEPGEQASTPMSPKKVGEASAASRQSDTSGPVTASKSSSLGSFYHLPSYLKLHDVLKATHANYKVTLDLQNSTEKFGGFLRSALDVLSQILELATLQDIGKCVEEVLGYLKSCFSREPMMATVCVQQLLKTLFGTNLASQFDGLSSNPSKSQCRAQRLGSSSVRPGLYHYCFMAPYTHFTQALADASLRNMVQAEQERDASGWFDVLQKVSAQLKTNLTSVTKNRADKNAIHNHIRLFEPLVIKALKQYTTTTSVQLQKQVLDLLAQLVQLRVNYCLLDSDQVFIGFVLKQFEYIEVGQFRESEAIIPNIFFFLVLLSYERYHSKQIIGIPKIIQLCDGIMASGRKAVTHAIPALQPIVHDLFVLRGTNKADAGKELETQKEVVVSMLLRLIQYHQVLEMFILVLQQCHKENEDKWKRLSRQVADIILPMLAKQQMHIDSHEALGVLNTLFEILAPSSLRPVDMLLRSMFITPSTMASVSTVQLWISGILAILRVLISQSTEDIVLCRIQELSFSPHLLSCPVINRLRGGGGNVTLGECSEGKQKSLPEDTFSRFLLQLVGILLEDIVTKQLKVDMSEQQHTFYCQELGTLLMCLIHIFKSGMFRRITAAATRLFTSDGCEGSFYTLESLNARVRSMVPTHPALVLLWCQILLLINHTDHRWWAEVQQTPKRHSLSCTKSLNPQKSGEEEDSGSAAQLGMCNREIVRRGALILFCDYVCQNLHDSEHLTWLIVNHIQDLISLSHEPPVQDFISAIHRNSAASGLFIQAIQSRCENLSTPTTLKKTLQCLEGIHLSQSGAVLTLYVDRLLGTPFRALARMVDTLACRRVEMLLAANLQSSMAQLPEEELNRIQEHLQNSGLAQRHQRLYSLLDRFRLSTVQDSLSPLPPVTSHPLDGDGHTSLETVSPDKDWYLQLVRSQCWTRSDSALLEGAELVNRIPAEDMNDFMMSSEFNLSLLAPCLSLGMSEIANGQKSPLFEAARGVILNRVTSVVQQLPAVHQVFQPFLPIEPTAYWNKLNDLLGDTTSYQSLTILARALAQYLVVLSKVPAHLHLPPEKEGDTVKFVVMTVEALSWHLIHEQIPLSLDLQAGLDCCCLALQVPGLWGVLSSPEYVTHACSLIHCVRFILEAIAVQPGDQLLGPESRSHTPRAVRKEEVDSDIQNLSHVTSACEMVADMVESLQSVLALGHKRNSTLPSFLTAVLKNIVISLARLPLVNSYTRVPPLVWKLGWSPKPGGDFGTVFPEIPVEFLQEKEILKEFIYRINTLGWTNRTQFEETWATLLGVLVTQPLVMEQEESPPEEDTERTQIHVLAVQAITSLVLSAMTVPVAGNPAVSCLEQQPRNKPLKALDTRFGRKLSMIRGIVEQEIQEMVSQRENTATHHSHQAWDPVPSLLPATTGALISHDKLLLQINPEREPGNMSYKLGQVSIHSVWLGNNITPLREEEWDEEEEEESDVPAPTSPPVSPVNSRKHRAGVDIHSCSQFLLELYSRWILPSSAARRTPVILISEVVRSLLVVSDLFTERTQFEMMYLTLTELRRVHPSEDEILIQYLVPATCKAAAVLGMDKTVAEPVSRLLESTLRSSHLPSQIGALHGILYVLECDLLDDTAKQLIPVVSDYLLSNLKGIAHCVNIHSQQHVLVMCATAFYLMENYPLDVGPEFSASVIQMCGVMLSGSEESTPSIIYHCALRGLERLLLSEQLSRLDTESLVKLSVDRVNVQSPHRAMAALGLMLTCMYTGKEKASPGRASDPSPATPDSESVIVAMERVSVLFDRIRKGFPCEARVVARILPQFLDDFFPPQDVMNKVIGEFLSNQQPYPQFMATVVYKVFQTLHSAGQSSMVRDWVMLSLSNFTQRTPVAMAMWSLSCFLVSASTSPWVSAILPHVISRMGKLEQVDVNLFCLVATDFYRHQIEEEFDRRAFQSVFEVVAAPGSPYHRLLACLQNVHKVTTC

Row | SMILES | remaining activity at 10 µM [%] | also measured
1 | CCc1c(C)[nH]c2ccc(C(=O)NCCN(C)C)cc12 [Compound 1] | 30 | 
2 | Cc1[nH]c2ccc(C(=O)NCCN3CCOCC3)cc2c1C [Compound 2, 2,3-dimethyl-N-(2-morpholinoethyl)-1H-indole-5-carboxamide] | 32 | 
3 | CN(C)CCNC(=O)c1ccc2[nH]c3c(c2c1)CCCC3 [Compound 3] | 33 | 
4 | CN(C)CCNC(=O)c1ccc2[nH]c3c(c2c1)CCC3 [Compound 5] | 36 | 
5 | O=C(NCCN1CCOCC1)c1ccc2[nH]c3c(c2c1)CCC3 [Compound 8] | 38 | 
6 | CN1CCN(CCNC(=O)c2ccc3[nH]c4c(c3c2)CCC4)CC1 [Compound 10] | 40 | 
7 | CCc1[nH]c2ccc(C(=O)NCCN3CCCC3)cc2c1C [Compound 11] | 40 | 
8 | O=C(NCCN1CCOCC1)c1ccc2[nH]c3c(c2c1)CCCC3 [Compound 12] | 40 | 
9 | O=C(NCCN1CCCC1)c1ccc2[nH]c3c(c2c1)CCCC3 [Compound 13] | 41 | 
10 | CCc1c(C)[nH]c2ccc(C(=O)NCCN3CCN(C)CC3)cc12 [Compound 15] | 42 | 
11 | O=C(NCCN1CCCCC1)c1ccc2[nH]c3c(c2c1)CCCC3 [Compound 16] | 43 | 
12 | Cc1[nH]c2ccc(C(=O)NCCN3CCC3)cc2c1C [Compound 17, N-(2-(Azetidin-1-yl)ethyl)-2,3-dimethyl-1H-indole-5-carboxamide] | 44 | 
13 | CCN(CC)CCNC(=O)c1ccc2c(c1)c(C)c(C)n2C [Compound 19, N-(2-(Diethylamino)ethyl)-1,2,3-dimethyl-1H-indole-5-carboxamide] |  | mHTT after treatment: 45%
14 | CCN(CC)CCNC(=O)c1ccc2[nH]c(C)c(C)c2c1 [Compound 21, N-(2-(Diethylamino)ethyl)-2,3-dimethyl-1H-indole-5-carboxamide] | 46 | 
15 | Cc1c(C)n(C)c2ccc(C(=O)NCCN3CCN(C)C(C)C3)cc12 (stereo not drawn) [Compound 25, N-(2-(3,4-Dimethylpiperazin-1-yl)ethyl)-1,2,3-trimethyl-1H-indole-5-carboxamide] | 48 | 
16 | Cc1[nH]c2ccc(C(=O)NCCN3CCCC3)cc2c1C [Compound 29, 2,3-Dimethyl-N-(2-(pyrrolidin-1-yl)ethyl)-1H-indole-5-carboxamide] | 51 | 
17 | Cc1c(C)n(C)c2ccc(C(=O)NCCN3CCCCC3)cc12 [Compound 31, 1,2,3-Trimethyl-N-(2-(piperidin-1-yl)ethyl)-1H-indole-5-carboxamide] | 52 | 
18 | Cc1c(C)n(C)c2ccc(C(=O)NCCN(C)C)cc12 [Compound 41, N-(2-(Dimethylamino)ethyl)-1,2,3-trimethyl-1H-indole-5-carboxamide] | 65 | 
19 | Cc1c(C)n(C)c2ccc(C(=O)NCCN3CCC3)cc12 [Compound 44, N-(2-(Azetidin-1-yl)ethyl)-1,2,3-dimethyl-1H-indole-5-carboxamide] |  | mHTT after treatment: 66%
20 | Cc1c(C)n(C)c2ccc(C(=O)NCCN3CCCC3)cc12 [Compound 46, 1,2,3-Trimethyl-N-(2-(pyrrolidin-1-yl)ethyl)-1H-indole-5-carboxamide] | 66 | 
21 | Cc1[nH]c2ccc(C(=O)NCCN3CCCCC3)cc2c1C [Compound 47, 2,3-Dimethyl-N-(2-(piperidin-1-yl)ethyl)-1H-indole-5-carboxamide] | 66 | 
22 | Cc1[nH]c2ccc(S(=O)(=O)NCCN3CCOCC3)cc2c1C [Compound 127] |  | Nuclear mHTT after treatment: 23.9%
23 | Cc1[nH]c2ccc(S(=O)(=O)NCCN3CCCCC3)cc2c1C [Compound 128] |  | Nuclear mHTT after treatment: 79.9%

Now from value to compound, other results behind:

Row | remaining activity at 10 µM [%] | SMILES | also measured
24 | 45 | O=C(NCCN1CCC1)c1ccc2[nH]c3c(c2c1)CCCC3 [Compound 20] | mHTT reduction with MG132 in comparison to without MG132 (STHdh 111/111 striatal cells): less
25 | 47 | CCc1[nH]c2ccc(C(=O)NCCN3CCCCC3)cc2c1C [Compound 23] | 
26 | 50 | CCN(CC)CCNC(=O)c1ccc2[nH]c3c(c2c1)CCC3 [Compound 27] | 
27 | 51 | CCc1[nH]c2ccc(C(=O)NCCN3CCOCC3)cc2c1C [Compound 30] | 
28 | 53 | CCc1c(C)[nH]c2ccc(C(=O)NCCN3CCOCC3)cc12 [Compound 32] | 
29 | 55 | CCc1c(C)[nH]c2ccc(C(=O)NCCN3CCC3)cc12 [Compound 33] | 
30 | 56 | CN1CCN(CCNC(=O)c2ccc3[nH]c4c(c3c2)CCCC4)CC1 [Compound 36] | 
31 | 56 | CCc1[nH]c2ccc(C(=O)NCCN(C)C)cc2c1C [Compound 37] | 
32 | 57 | CCc1[nH]c2ccc(C(=O)NCCN(CC)CC)cc2c1C [Compound 38] | 
33 | 65 | O=C(NCCN1CCC1)c1ccc2[nH]c3c(c2c1)CCC3 [Compound 42] | 
34 | 65 | CC(C)N(CCNC(=O)c1ccc2[nH]ccc2c1)C(C)C [Compound 43] | 
35 | 68 | Cc1c(C)n(C)c2ccc(C(=O)NCCN3CCCCC3C)cc12 (stereo not drawn) [Compound 48] | 
